“And” between values parts separate entries of the source, which are not always exact repeats. Equal values may be shown once. “Also recorded” adds a separate entry of the source.
B1: Goα, endogenous rat brain (natural protein, rat (endogenous in rat brain), UniProt P59215 1-354, looked up)
chain: MGCTLSAEERAALERSKAIEKNLKEDGISAAKDVKLLLLGAGESGKSTIVKQMKIIHEDGFSGEDVKQYKPVVYSNTIQSLAAIVRAMDTLGVEYGDKERKADSKMVCDVVSRMEDTEPFSAELLSAMMRLWGDSGIQECFNRSREYQLNDSAKYYLDSLDRIGAADYQPTEQDILRTRVKTTGIVETHFTFKNLHFRLFDVGGQRSERKKWIHCFEDVTAIIFCVALSGYDQVLHEDETTNRMHESLMLFDSICNNKFFIDTSIILFLNKKDLFGEKIKKSPLTICFPEYPGSNTYEDAAAYIQTQFESKNRSPNKEIYCHMTCATDTNNIQVVFDAVTDIIIANNLRGCGLY
B2: His6RGS4 (recombinant regulator of G protein signaling 4) (natural protein, UniProt P49799 1-205, looked up)
chain: MCKGLAGLPASCLRSAKDMKHRLGFLLQKSDSCEHSSSHSKKDKVVTCQRVSQEEVKKWAESLENLINHECGLAAFKAFLKSEYSEENIDFWISCEEYKKIKSPSKLSPKAKKIYNEFISVQATKEVNLDSCTREETSRNMLEPTITCFDEAQKKIFNLMEKDSYRRFLKSRFYLDLTNPSSCGAEKQKGAKSSADCTSLVPQCA
B3: RGS4: recombinant regulator of G protein signaling 4, His6-tagged, expressed in JM109 E. coli (protein)
chain: B2 chain
modifications: left off: His6, end not stated, kept

Legend:
[1] = target: rat mu opioid receptor (MOR)/G protein complex (Rattus norvegicus, UniProt P33535+P59215); assay: Co-immunoprecipitation of Goα and RGS4 with solubilized MOR; type: biochemical; details: for amount of RGS4 co-immunoprecipitated with MOR: 1 μM DAMGO, 0.3 μM RGS4
[2] = target: Goα (Rattus norvegicus, UniProt P59215); assay: His6RGS4/Ni2+-NTA agarose pull-down of Goα from solubilized rat brain membranes; type: biochemical; details: for effect on association of Goα with His6RGS4: 100 μM GDP or 10 μM GTP alone
[3] = target: mu opioid receptor (Homo sapiens, UniProt P35372); assay: biochemical
[4] = target: MOR (Homo sapiens, UniProt P35372); type: biochemical; details: presence of 1 μM RGS4
[5] = target: MOR/G protein complex (Rattus norvegicus, UniProt P33535); assay: Co-immunoprecipitation of Goα with MOR using anti-MOR349-398; type: biochemical; details: 1 µM DAMGO; IP with anti-MOR349-398; Figure S2c
[6] = tested on: RGS4 mRNA levels in the locus coeruleus; details: 6 days of chronic morphine administration; ref Gold et al. 2003; cited from earlier work
[7] = target: B2; assay: pull-down
[8] = target: mu opioid receptor (MOR), endogenous rat brain (rat, UniProt P33535 1-398); assay: co-IP
[9] = tested on: Go/Gi-type G proteins; type: biochemical, human; details: RGS4 added

Chain of rat mu opioid receptor (MOR)/G protein complex (P33535 whole entry, one chain of several): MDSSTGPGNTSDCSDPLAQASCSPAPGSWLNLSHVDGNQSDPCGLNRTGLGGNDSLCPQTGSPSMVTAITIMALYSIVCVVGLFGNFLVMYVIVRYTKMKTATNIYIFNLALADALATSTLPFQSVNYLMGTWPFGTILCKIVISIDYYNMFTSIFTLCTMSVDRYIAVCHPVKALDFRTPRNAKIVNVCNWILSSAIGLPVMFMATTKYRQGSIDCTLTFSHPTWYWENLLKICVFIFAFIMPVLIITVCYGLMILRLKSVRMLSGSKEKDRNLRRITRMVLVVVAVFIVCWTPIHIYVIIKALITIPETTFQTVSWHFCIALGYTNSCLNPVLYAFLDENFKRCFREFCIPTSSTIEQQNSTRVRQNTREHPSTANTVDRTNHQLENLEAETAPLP
Chain of mu opioid receptor (P35372 whole entry): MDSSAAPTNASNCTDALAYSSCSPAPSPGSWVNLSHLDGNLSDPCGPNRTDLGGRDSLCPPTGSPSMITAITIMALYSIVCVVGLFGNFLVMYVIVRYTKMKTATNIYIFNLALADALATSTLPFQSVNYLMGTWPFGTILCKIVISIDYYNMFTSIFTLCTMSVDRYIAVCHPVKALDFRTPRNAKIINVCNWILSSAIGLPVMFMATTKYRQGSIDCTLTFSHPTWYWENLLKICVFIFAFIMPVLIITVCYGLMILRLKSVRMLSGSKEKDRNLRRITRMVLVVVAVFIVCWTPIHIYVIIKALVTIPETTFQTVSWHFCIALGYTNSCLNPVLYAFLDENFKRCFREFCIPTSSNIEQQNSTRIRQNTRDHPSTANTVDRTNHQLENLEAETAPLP
Chain of MOR/G protein complex (P33535 whole entry, one chain of several): as the sequence (P33535 whole entry, one chain of several) above
Chain of mu opioid receptor (MOR), endogenous rat brain (P33535 whole entry): as the sequence (P33535 whole entry, one chain of several) above
Chain of MOR (P35372 whole entry): as the sequence (P35372 whole entry) above

With `C[C@@H](NC(=O)[C@@H](N)Cc1ccc(O)cc1)C(=O)NCC(=O)N(C)[C@@H](Cc1ccccc1)C(=O)NCCO` [DAMGO, [D‐Ala^2, N‐Me‐Phe^4, Gly^5‐ol] enkephalin] the “increase in RGS4 co-immunoprecipitating with MOR” value ([1]; DAMGO during immunoprecipitation vs no addition) was 50% and 53%, the “effect on binding of Goα to RGS4” value ([2]; 1 μM DAMGO alone, without guanine nucleotide) was “did not affect” and the “Goα molecules whose affinity for GDP is decreased by MOR activation” value ([2]; DAMGO with 100 μM GDP and 0.3 μM GTPγS) was 40–50%. For the same molecule, the “inhibition of forskolin-stimulated adenylyl cyclase activity” value [3] was 21.8% ± 2.27, the “maximal inhibition, adenylyl cyclase activity reduced to” value [3] was 3.28 pmoles cAMP formed in 10 min and 3.92 pmoles cAMP formed in 10 min and the inhibition at 1 µM ([3]; read-out: inhibition of adenylyl cyclase activity) was 60.4 ± 2.97%. The “maximal amount of [35S]GTPγS bound (Bmax)” value [4] was 1319 ± 82 dpm and the “increase in Goα co-immunoprecipitating with MOR” value [5] was roughly 2 fold.

For `Nc1nc2c(ncn2[C@@H]2O[C@H](COP(=O)(O)OP(=O)(O)O)[C@@H](O)[C@H]2O)c(=O)[nH]1` [GDP], the “effect on association of Goα with His6RGS4” value [2] was “failed to affect; also recorded: Neither 100 μM GDP nor 10 μM GTP affected; also recorded: neither GTP nor GDP had an effect” and the “effect on GTPγS-enhanced Goα binding to RGS4” value ([2]; 100 μM GDP with 0.3 μM GTPγS) was “blocked this effect; also recorded: prevented; also recorded: return to the control level”.

In the case of `Nc1nc2c(ncn2[C@@H]2O[C@H](COP(=O)(O)OP(=O)(O)OP(=O)(O)O)[C@@H](O)[C@H]2O)c(=O)[nH]1` [GTP], the “effect on amount of Goα associated with MOR” value ([1]; 10 μM GTP added to DAMGO vs DAMGO alone) is reported as “did not alter”, the “additional increase in RGS4 co-immunoprecipitating with MOR” value ([1]; 10 μM GTP with 1 μM DAMGO vs DAMGO alone) is reported as 72% and 71.6% and the “effect on association of Goα with His6RGS4” value [2] is reported as “failed to affect; also recorded: Neither 100 μM GDP nor 10 μM GTP affected; also recorded: neither GTP nor GDP had an effect”.

In the case of `CN1CC[C@]23c4c5ccc(O)c4O[C@H]2[C@@H](O)C=C[C@H]3[C@H]1C5` [morphine], the “RGS4 mRNA levels in the locus coeruleus” value [6] is given as “doubled”.

For B1, the “fold increase of Goα bound to His6RGS4 with 0.3 uM GTPγS against control” value [7] was roughly 3 fold.

With B2 the “stoichiometry N” value [8] was roughly 1.

For B3, the “amount of RGS4 co-immunoprecipitated with MOR” value ([1]; absence of GTPγS) was 9 ± 1.1 fmol, the “amount of RGS4 co-immunoprecipitated with MOR” value ([1]; presence of 1 μM GTPγS) was 28 fmol and 28.4 ± 5.4 fmol and the “ratio of MOR to RGS4 in the immunoprecipitate” value ([1]; presence of GTPγS) was 1–1. The “effect on GTPγS-mediated inhibition of adenylyl cyclase activity” value [9] was “failed to attenuate; also recorded: failed to affect; also recorded: had no effect”.

Reference: paper PMC5034817 (Journal of Neurochemistry, 2015)
